Reference: PubChem BioAssay AID2060904 (Molecular Pharmacology Branch, DTP, NCI, 2025)
Values belong to the compound of their own block, whether it stands above or below them.

System: 349418-098-R-PDC complex spheroid viability
Test: Anticancer human tumor 349418-098-R-PDC patient-derived lung adenocarcinoma cell line growth inhibition [RAS]
Details: for IC50: curve of first compound; for viability, T/C: stronger effect = lower value
How it was run: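 Agents were tested in combination matrices in half-log decrements from a top concentration at or near clinical Cmax (10 microM if undetermined). Targets were multi-cell spheroids of tumour lines plus HUVEC and MSC stromal cells.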

[1] = second compound 0.00316 µM, first compound 0.0316 µM
[2] = second compound 0.00316 µM, first compound 0.1 µM
[3] = second compound 0.00316 µM, first compound 0.316 µM
[4] = second compound 0.00316 µM, first compound 1 µM
[5] = second compound 0.01 µM, first compound 0.0316 µM
[6] = second compound 0.01 µM, first compound 0.1 µM
[7] = second compound 0.01 µM, first compound 0.316 µM
[8] = second compound 0.01 µM, first compound 1 µM
[9] = second compound 0.0316 µM, first compound 0.0316 µM
[10] = second compound 0.0316 µM, first compound 0.1 µM
[11] = second compound 0.0316 µM, first compound 0.316 µM
[12] = second compound 0.0316 µM, first compound 1 µM
[13] = second compound 0.1 µM, first compound 0.0316 µM
[14] = second compound 0.1 µM, first compound 0.1 µM
[15] = second compound 0.1 µM, first compound 0.316 µM
[16] = second compound 0.1 µM, first compound 1 µM
[17] = second compound 0.316 µM, first compound 0.0316 µM
[18] = second compound 0.316 µM, first compound 0.1 µM
[19] = second compound 0.316 µM, first compound 0.316 µM
[20] = second compound 0.316 µM, first compound 1 µM
[21] = second compound 1 µM, first compound 0.0316 µM
[22] = second compound 1 µM, first compound 0.1 µM
[23] = second compound 1 µM, first compound 0.316 µM
[24] = second compound 1 µM, first compound 1 µM
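Also: spheroids exposed to compound for seven days before viability readout.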

IC50 (second compound 0.00316 µM): > 10 µM | IC50 (second compound 0.01 µM): > 10 µM | IC50 (second compound 0.0316 µM): > 10 µM | IC50 (second compound 0.1 µM): > 10 µM | IC50 (second compound 0.316 µM): > 10 µM | IC50 (second compound 1 µM): > 10 µM
SMILES: NC1c2ccccc2OC12CCN(c1cnc3c(N4CCCc5ncccc54)n[nH]c3n1)CC2 (centres undefined) + C=CC(=O)N1CCN(c2nc(OCC3CCCN3C)nc3c(F)c(-c4nc(N)cc(C)c4C(F)(F)F)c(Cl)cc23)C(C)C1
viability, T/C [1]: 106% | viability, T/C [2]: 85.4% | viability, T/C [3]: 93.2% | viability, T/C [4]: 75.5% | viability, T/C (second compound 0.00316 µM, first compound 3.16 µM): 102% | viability, T/C (second compound 0.00316 µM, first compound 10 µM): 55.8% | viability, T/C [5]: 113% | viability, T/C [6]: 91.4% | viability, T/C [7]: 110% | viability, T/C [8]: 72.9% | viability, T/C (second compound 0.01 µM, first compound 3.16 µM): 93.9% | viability, T/C (second compound 0.01 µM, first compound 10 µM): 68.5% | viability, T/C [9]: 114% | viability, T/C [10]: 100% | viability, T/C [11]: 67% | viability, T/C [12]: 86% | viability, T/C (second compound 0.0316 µM, first compound 3.16 µM): 82.3% | viability, T/C (second compound 0.0316 µM, first compound 10 µM): 71.1% | viability, T/C [13]: 100% | viability, T/C [14]: 82.5% | viability, T/C [15]: 83.1% | viability, T/C [16]: 101% | viability, T/C (second compound 0.1 µM, first compound 3.16 µM): 119% | viability, T/C (second compound 0.1 µM, first compound 10 µM): 76.7% | viability, T/C [17]: 80% | viability, T/C [18]: 92.7% | viability, T/C [19]: 92.1% | viability, T/C [20]: 91.1% | viability, T/C (second compound 0.316 µM, first compound 3.16 µM): 100% | viability, T/C (second compound 0.316 µM, first compound 10 µM): 64% | viability, T/C [21]: 64.5% | viability, T/C [22]: 89.8% | viability, T/C [23]: 74% | viability, T/C [24]: 83.7% | viability, T/C (second compound 1 µM, first compound 3.16 µM): 71.2% | viability, T/C (second compound 1 µM, first compound 10 µM): 69.1%

IC50 (second compound 0.00316 µM): < 0.00316 µM | IC50 (second compound 0.01 µM): < 0.00316 µM | IC50 (second compound 0.0316 µM): < 0.00316 µM | IC50 (second compound 0.1 µM): < 0.00316 µM | IC50 (second compound 0.316 µM): < 0.00316 µM | IC50 (second compound 1 µM): < 0.00316 µM
SMILES: Nc1ccn(C2OC(CO)C(O)C2(F)F)c(=O)n1 (centres undefined) + C=CC(=O)N1CCN(c2nc(OCC3CCCN3C)nc3c(F)c(-c4nc(N)cc(C)c4C(F)(F)F)c(Cl)cc23)C(C)C1
viability, T/C (second compound 0.00316 µM, first compound 0.00316 µM): 21.5% | viability, T/C (second compound 0.00316 µM, first compound 0.01 µM): 7.36% | viability, T/C [1]: 6.2% | viability, T/C [2]: 4.92% | viability, T/C [3]: 5.23% | viability, T/C [4]: 5.62% | viability, T/C (second compound 0.01 µM, first compound 0.00316 µM): 17% | viability, T/C (second compound 0.01 µM, first compound 0.01 µM): 6.27% | viability, T/C [5]: 5.91% | viability, T/C [6]: 5.09% | viability, T/C [7]: 5.47% | viability, T/C [8]: 5.2% | viability, T/C (second compound 0.0316 µM, first compound 0.00316 µM): 21.6% | viability, T/C (second compound 0.0316 µM, first compound 0.01 µM): 6.92% | viability, T/C [9]: 6.95% | viability, T/C [10]: 5.38% | viability, T/C [11]: 5.08% | viability, T/C [12]: 4.96% | viability, T/C (second compound 0.1 µM, first compound 0.00316 µM): 22.6% | viability, T/C (second compound 0.1 µM, first compound 0.01 µM): 6.48% | viability, T/C [13]: 4.56% | viability, T/C [14]: 4.77% | viability, T/C [15]: 4.97% | viability, T/C [16]: 4.84% | viability, T/C (second compound 0.316 µM, first compound 0.00316 µM): 19.2% | viability, T/C (second compound 0.316 µM, first compound 0.01 µM): 8.3% | viability, T/C [17]: 4.99% | viability, T/C [18]: 5.68% | viability, T/C [19]: 6.7% | viability, T/C [20]: 4.81% | viability, T/C (second compound 1 µM, first compound 0.00316 µM): 22.9% | viability, T/C (second compound 1 µM, first compound 0.01 µM): 6.24% | viability, T/C [21]: 4.96% | viability, T/C [22]: 6.96% | viability, T/C [23]: 7.44% | viability, T/C [24]: 5.82%
